± gives the standard deviation of the averaged measurements.
Key:
[1] = compound: COc1cc2nccc(Oc3ccc(NC(=O)C4(C(=O)Nc5ccc(F)cc5)CC4)cc3)c2cc1OC [CABOZANTINIB]; assay: surviving fraction relative to DMSO-only wells; higher = less growth inhibition; conditions: exposure time: 5 days
Method in brief: (§1)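 Inhibitors were tested at 0.5, 1, 5, 10, 50, 100, 500 and 1000 nM, applied continuously for five days beginning 24 hours after log-phase tumour cells were seeded at 250–500 per well in 384-well plates. CellTiter-Glo luminescence served as the viability measure, expressed as surviving fraction against the median of DMSO-only wells. Each line, screened three times, was kept only with replicate Pearson r >0.7 and median Z' >0.3.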

[2] = compound: COc1cc2nccc(Oc3ccc(NC(=O)NC4CC4)c(Cl)c3)c2cc1C(N)=O [LENVATINIB]; assay: as above; conditions: exposure time: 5 days
Method in brief: as §1

Test System	surviving fraction ([1]; 0.5 nM)	surviving fraction ([1]; 1 nM)	surviving fraction ([1]; 5 nM)	surviving fraction ([1]; 10 nM)	surviving fraction ([1]; 50 nM)	surviving fraction ([1]; 100 nM)	surviving fraction ([1]; 500 nM)	surviving fraction ([1]; 1000 nM)	surviving fraction ([2]; 0.5 nM)	surviving fraction ([2]; 1 nM)	surviving fraction ([2]; 5 nM)	surviving fraction ([2]; 10 nM)	surviving fraction ([2]; 50 nM)	surviving fraction ([2]; 100 nM)	surviving fraction ([2]; 500 nM)	surviving fraction ([2]; 1000 nM)
HSSYII SYNOVIAL	0.909 ± 0.022	0.927 ± 0.067	0.935 ± 0.048	0.923 ± 0.025	0.963 ± 0.071	0.888 ± 0.014	0.787 ± 0.0083	0.671 ± 0.043	0.933 ± 0.057	0.961 ± 0.028	0.952 ± 0.018	0.942 ± 0.06	0.842 ± 0.026	0.724 ± 0.024	0.38 ± 0.024	0.3 ± 0.017
HT1080 SOFT TISSUE	1.05 ± 0.025	0.999 ± 0.021	1.01 ± 0.021	1.03 ± 0.013	1.01 ± 0.022	1.01 ± 0.014	0.973 ± 0.0017	0.965 ± 0.033	1 ± 0.043	1.01 ± 0.051	1 ± 0.033	1.02 ± 0.032	1 ± 0.013	0.978 ± 0.021	1 ± 0.039	0.987 ± 0.026
HU09 BONE	0.945 ± 0.084	0.999 ± 0.11	0.978 ± 0.055	1.02 ± 0.13	0.885 ± 0.096	0.638 ± 0.06	0.452 ± 0.043	0.338 ± 0.034	0.925 ± 0.039	0.985 ± 0.079	0.97 ± 0.014	0.937 ± 0.13	0.649 ± 0.075	0.587 ± 0.021	0.33 ± 0.045	0.288 ± 0.034
HUO3N1 BONE	1.05 ± 0.034	1.05 ± 0.066	1.02 ± 0.025	0.953 ± 0.0036	0.916 ± 0.014	0.861 ± 0.021	0.742 ± 0.07	0.666 ± 0.008	1.05 ± 0.057	1.04 ± 0.058	1.03 ± 0.013	0.961 ± 0.053	0.967 ± 0.034	0.876 ± 0.018	0.764 ± 0.0072	0.676 ± 0.051
JIMT1 BREAST	1.03 ± 0.049	1.04 ± 0.025	1.07 ± 0.029	1.04 ± 0.049	1.13 ± 0.048	1.1 ± 0.033	1.04 ± 0.043	1 ± 0.039	0.987 ± 0.026	1.03 ± 0.0053	1.03 ± 0.026	1.03 ± 0.052	1.06 ± 0.068	1.04 ± 0.011	1 ± 0.015	1.08 ± 0.011
JURKAT HAEMATOPOIETIC AND LYMPHOID TISSUE	1.07 ± 0.015	1.03 ± 0.014	1.05 ± 0.042	1.05 ± 0.022	0.998 ± 0.036	0.985 ± 0.017	1.04 ± 0.021	0.972 ± 0.0044	1.06 ± 0.011	1.08 ± 0.024	1.03 ± 0.035	1.02 ± 0.041	1 ± 0.039	1.02 ± 0.038	1.013 ± 0.009	0.964 ± 0.032
KPD BONE	0.914 ± 0.031	0.985 ± 0.02	1.1 ± 0.045	1.04 ± 0.028	1.05 ± 0.036	1.03 ± 0.045	0.997 ± 0.068	0.956 ± 0.047	1 ± 0.019	0.99 ± 0.067	1.01 ± 0.078	1.01 ± 0.093	1 ± 0.11	1.02 ± 0.11	0.948 ± 0.03	0.814 ± 0.037
LM7 BONE	1.03 ± 0.091	0.998 ± 0.039	1.07 ± 0.035	1.04 ± 0.053	1.06 ± 0.11	1.09 ± 0.019	0.932 ± 0.015	0.889 ± 0.036	0.974 ± 0.11	0.951 ± 0.066	1.03 ± 0.074	0.973 ± 0.086	1.07 ± 0.12	1.03 ± 0.041	0.939 ± 0.022	0.952 ± 0.11
LNCAP PROSTATE	0.622 ± 0.084	1.02 ± 0.041	0.925 ± 0.05	0.897 ± 0.1	0.936 ± 0.042	0.976 ± 0.057	0.766 ± 0.013	0.383 ± 0.023	1.16 ± 0.031	0.973 ± 0.044	0.904 ± 0.17	0.896 ± 0.1	1.02 ± 0.13	0.924 ± 0.16	0.909 ± 0.12	0.533 ± 0.073
MCF7 BREAST	0.907 ± 0.019	0.836 ± 0.012	0.852 ± 0.029	0.863 ± 0.033	0.889 ± 0.015	0.933 ± 0.032	0.88 ± 0.066	0.91 ± 0.075	0.954 ± 0.061	0.903 ± 0.056	0.954 ± 0.059	0.931 ± 0.076	0.971 ± 0.034	0.978 ± 0.11	0.942 ± 0.03	0.934 ± 0.073
